Data from paper PMC3759295 (Toxicology letters, 2013).
Where “and” joins values, the source holds several entries; their conditions need not be identical. Equal values may be shown once. Each block holds one compound with its values, some of them ahead of it.

Assays:
CYP1A1 [1] = conditions: read-out: IC50, inhibition of CYP1A1; aglycons (anthocyanidins); ref Kamenickova et al. 2013; cited from earlier work
[2] = test system: CYP1A1 protein in HepG2 cells; assay: CYP1A1 protein in HepG2 cells; type: cell-based, human; conditions: HepG2, TCDD 5 nM, 48 h
[3] = test system: CYP1A1 protein in LS174T cells; assay: CYP1A1 protein in LS174T cells; type: cell-based, human; conditions: TCDD 5 nM, 48 h
[4] = test system: CYP1A1 mRNA in primary human hepatocytes; assay: CYP1A1 mRNA expression in primary human hepatocytes; type: cell-based
[5] = test system: CYP1A1 mRNA in HepG2 cells; assay: CYP1A1 mRNA expression in HepG2 cells; conditions: HepG2, TCDD 5 nM, 24 h, two independent experiments
[6] = test system: CYP1A1 mRNA in LS174T cells; assay: CYP1A1 mRNA expression in LS174T cells; conditions: TCDD 5 nM, 24 h, two independent experiments
[7] = test system: CYP1A1 protein in primary human hepatocytes; assay: CYP1A1 protein in primary human hepatocytes
CYP1A1 mRNA = CYP1A1 mRNA expression in primary human hepatocytes; type: cell-based; conditions: human
AhR = biological target: T1, AhR (Homo sapiens, UniProt P35869); assay: Gene reporter assay, transcriptional activity of AhR in AZ-AHR reporter cells; conditions: 10 µM and 50 µM, 24 h
T1 sequence (P35869 11-848): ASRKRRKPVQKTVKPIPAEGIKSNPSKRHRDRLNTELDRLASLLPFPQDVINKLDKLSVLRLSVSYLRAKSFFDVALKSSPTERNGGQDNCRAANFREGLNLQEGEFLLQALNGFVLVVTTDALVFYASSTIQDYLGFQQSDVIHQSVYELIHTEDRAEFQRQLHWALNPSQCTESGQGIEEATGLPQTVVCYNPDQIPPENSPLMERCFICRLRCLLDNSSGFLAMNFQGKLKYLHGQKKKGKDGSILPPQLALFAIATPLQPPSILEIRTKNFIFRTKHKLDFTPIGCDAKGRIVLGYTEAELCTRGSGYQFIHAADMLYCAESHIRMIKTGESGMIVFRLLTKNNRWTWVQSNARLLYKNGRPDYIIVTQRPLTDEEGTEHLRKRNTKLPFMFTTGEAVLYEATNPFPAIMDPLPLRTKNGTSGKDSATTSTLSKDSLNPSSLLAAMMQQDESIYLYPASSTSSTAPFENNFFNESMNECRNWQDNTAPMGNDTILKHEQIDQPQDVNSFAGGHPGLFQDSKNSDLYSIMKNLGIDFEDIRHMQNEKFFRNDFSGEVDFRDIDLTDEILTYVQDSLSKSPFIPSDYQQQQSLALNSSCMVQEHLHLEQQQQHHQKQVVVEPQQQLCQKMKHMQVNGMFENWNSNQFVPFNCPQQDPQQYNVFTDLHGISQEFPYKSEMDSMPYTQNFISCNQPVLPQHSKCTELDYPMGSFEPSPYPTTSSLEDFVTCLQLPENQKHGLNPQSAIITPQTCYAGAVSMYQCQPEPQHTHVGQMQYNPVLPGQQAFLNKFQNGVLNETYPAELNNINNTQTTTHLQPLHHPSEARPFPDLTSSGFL

CYP1A1 [8] = biological target: T2, CYP1A1 (Homo sapiens, UniProt P04798); assay: Enzyme activity of CYP1A1 in human liver microsomes; type: biochemical; conditions: 100 µM
T2 sequence (P04798 1-512): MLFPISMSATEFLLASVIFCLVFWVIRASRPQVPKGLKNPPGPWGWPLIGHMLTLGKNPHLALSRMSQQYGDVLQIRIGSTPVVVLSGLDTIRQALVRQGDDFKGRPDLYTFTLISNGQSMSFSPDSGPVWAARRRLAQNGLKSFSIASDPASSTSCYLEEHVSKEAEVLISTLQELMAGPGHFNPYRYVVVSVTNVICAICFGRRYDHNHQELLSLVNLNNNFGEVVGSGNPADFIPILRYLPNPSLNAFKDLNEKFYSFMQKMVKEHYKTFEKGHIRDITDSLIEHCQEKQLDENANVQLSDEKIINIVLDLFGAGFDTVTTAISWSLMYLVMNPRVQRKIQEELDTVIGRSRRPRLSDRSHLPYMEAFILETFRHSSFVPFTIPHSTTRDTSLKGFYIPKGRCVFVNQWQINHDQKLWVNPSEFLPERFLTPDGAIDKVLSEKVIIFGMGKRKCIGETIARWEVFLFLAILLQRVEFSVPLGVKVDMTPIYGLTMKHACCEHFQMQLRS

[9] = primary human hepatocytes (culture LH48 as printed)
[10] = male, primary human hepatocytes (culture LH45)
[11] = male, primary human hepatocytes (culture LH46)
[12] = male, primary human hepatocytes (culture LH47)

SMILES: Oc1ccc(-c2[o+]c3cc(O)cc(O)c3cc2O)cc1 [pelargonidin]
- IC50 (CYP1A1 [1]): 33 µM

SMILES: Clc1cc2c(cc1Cl)Oc1cc(Cl)c(Cl)cc1O2 [TCDD, 2,3,7,8-Tetrachlorodibenzo-p-dioxin]
- levels of CYP1A1 protein [2]: strongly induced
- levels of CYP1A1 protein [3]: strongly induced
- CYP1A1 mRNA fold induction over the vehicle-treated cells, LH45 ([4]; hepatocyte culture LH45, TCDD 5 nM, 24 h): 125.4 ± 17.7 fold
- CYP1A1 mRNA fold induction over the vehicle-treated cells, LH47 ([4]; hepatocyte culture LH47, TCDD 5 nM, 24 h): 104.7 ± 13.4 fold
- magnitude of induction of CYP1A1 mRNA, LH49 ([4]; hepatocyte culture LH49, TCDD, 24 h): 71 fold
- induction of CYP1A1 mRNA [5]: 322 fold and 216 fold
- induction of CYP1A1 mRNA [6]: 1003 fold and 724 fold
- levels of CYP1A1 protein ([7]; four human hepatocytes cultures, TCDD 5 nM, 48 h): strongly induced

SMILES: Oc1cc(O)c2c(c1)O[C@@]1(c3ccc(O)c(O)c3)Oc3cc(O)c4c(c3[C@@H]2[C@H]1O)O[C@H](c1ccc(O)c(O)c1)[C@H](O)C4 [PAC, proanthocyanidin A2]
- induction of luciferase activity (AhR): No significant induction

SMILES: Oc1cc(O)c2cc(O)c(-c3cc(O)c(O)c(O)c3)[o+]c2c1 [delphinidin]
- IC50 (CYP1A1 [1]): 77 µM

SMILES: C[C@@H]1O[C@@H](Oc2cc3c(O)cc(O)cc3[o+]c2-c2ccc(O)c(O)c2)[C@H](O)[C@H](O)[C@H]1O.[Cl-] [CYA-6, cyanidin-3-O-rhamnoside chloride]
- CYP1A1 mRNA fold induction over the vehicle-treated cells, LH45 ([4]; 10 µM): 0.77 ± 0.12 fold
- CYP1A1 mRNA fold induction over the vehicle-treated cells, LH46 ([4]; 10 µM): 1.19 ± 0.14 fold
- CYP1A1 mRNA fold induction over the vehicle-treated cells, LH45 ([4]; 50 µM): 0.73 ± 0.04 fold
- CYP1A1 mRNA fold induction over the vehicle-treated cells, LH46 ([4]; 50 µM): 1.36 ± 0.03 fold
- CYP1A1 mRNA fold induction over the vehicle-treated cells, LH47 ([4]; 50 µM): 0.31 ±0.03 fold
- CYP1A1 mRNA fold induction over the vehicle-treated cells, LH48 ([4]; 50 µM): 0.07 ± 0.00 fold

SMILES: OC[C@H]1O[C@@H](Oc2cc3c(O)cc(O)cc3[o+]c2-c2ccc(O)c(O)c2)[C@H](O)[C@@H](O)[C@@H]1O [CYA-1, cyanidin-3-O-glucoside chloride]
- fold induction at 24 h, 50 µM (CYP1A1 mRNA; [9]): 0.03
- fold induction at 24 h, 10 µM (CYP1A1 mRNA; [10]): 1.22 ± 0.04
- fold induction at 24 h, 50 µM (CYP1A1 mRNA; [10]): 0.73 ± 0.22
- fold induction at 24 h, 10 µM (CYP1A1 mRNA; [11]): 1.14 ± 0.2
- fold induction at 24 h, 50 µM (CYP1A1 mRNA; [11]): 1.04 ± 0.12
- fold induction at 24 h, 50 µM (CYP1A1 mRNA; [12]): 0.28 ± 0.01

SMILES: CC1OC(OCC2OC(Oc3cc4c(O)cc(O)cc4[o+]c3-c3ccc(O)cc3)C(O)C(O)C2O)C(O)C(O)C1O.[Cl-] (stereo not drawn) [PEL-2, pelargonidin-3-O-rutinoside chloride]
- CYP1A1 mRNA fold induction over the vehicle-treated cells, LH45 ([4]; hepatocyte culture LH45, 10 µM, 24 h): 0.87 ± 0.04 fold
- CYP1A1 mRNA fold induction over the vehicle-treated cells, LH45 ([4]; hepatocyte culture LH45, 50 µM, 24 h): 0.24 ± 0.01 fold
- CYP1A1 mRNA fold induction over the vehicle-treated cells, LH46 ([4]; hepatocyte culture LH46, 10 µM, 24 h): 2.66 ± 0.20 fold
- CYP1A1 mRNA fold induction over the vehicle-treated cells, LH46 ([4]; hepatocyte culture LH46, 50 µM, 24 h): 2.39 ± 0.22 fold
- CYP1A1 mRNA fold induction over the vehicle-treated cells, LH47 ([4]; hepatocyte culture LH47, 50 µM, 24 h): 0.61 ± 0.01 fold
- CYP1A1 mRNA fold induction over the vehicle-treated cells, LH48 ([4]; hepatocyte culture LH48 (so in the source), 50 µM, 24 h): 0.60 ± 0.17 fold
- induction of CYP1A1 mRNA ([4]; hepatocytes): Neither compound induced
- CYP1A1 activity remaining, % of the initial activity (without anthocyanin) (CYP1A1 [8]): 79%
- induction of CYP1A1 protein ([7]; four different primary human hepatocytes cultures): Neither compound induced
- induction of luciferase activity (AhR): concentration-dependent induction

SMILES: OC[C@H]1O[C@@H](Oc2cc3c(O)cc(O)cc3[o+]c2-c2ccc(O)c(O)c2)[C@H](O[C@@H]2OC[C@@H](O)[C@H](O)[C@H]2O)[C@@H](O)[C@H]1O.[Cl-] [CYA-9, cyanidin-3-O-lathyroside chloride]
- CYP1A1 mRNA fold induction over the vehicle-treated cells, LH45 ([4]; 10 µM): 0.32 ± 0.12 fold
- CYP1A1 mRNA fold induction over the vehicle-treated cells, LH46 ([4]; 10 µM): 0.91 ± 0.11 fold
- CYP1A1 mRNA fold induction over the vehicle-treated cells, LH45 ([4]; 50 µM): 0.61 ± 0.05 fold
- CYP1A1 mRNA fold induction over the vehicle-treated cells, LH46 ([4]; 50 µM): 1.77 ± 0.49 fold
- CYP1A1 mRNA fold induction over the vehicle-treated cells, LH47 ([4]; 50 µM): 0.11 ± 0.17 fold
- CYP1A1 mRNA fold induction over the vehicle-treated cells, LH48 ([4]; 50 µM): 0.09 ± 0.05 fold

SMILES: C[C@@H]1O[C@@H](OC[C@H]2O[C@@H](Oc3cc4c(O)cc(O)cc4[o+]c3-c3ccc(O)c(O)c3)[C@H](O)[C@@H](O)[C@@H]2O)[C@H](O)[C@H](O)[C@H]1O.[Cl-] [CYA-2, cyanidin-3-O-rutinoside chloride]
- CYP1A1 mRNA fold induction over the vehicle-treated cells, LH45 ([4]; 10 µM): 2.34 ± 0.28 fold
- CYP1A1 mRNA fold induction over the vehicle-treated cells, LH46 ([4]; 10 µM): 0.55 ± 0.03 fold
- CYP1A1 mRNA fold induction over the vehicle-treated cells, LH45 ([4]; 50 µM): 0.69 ± 0.25 fold
- CYP1A1 mRNA fold induction over the vehicle-treated cells, LH46 ([4]; 50 µM): 0.91 ± 0.04 fold
- CYP1A1 mRNA fold induction over the vehicle-treated cells, LH47 ([4]; 50 µM): 0.57 ± 0.09 fold
- CYP1A1 mRNA fold induction over the vehicle-treated cells, LH48 ([4]; 50 µM): 0.07 ± 0.02 fold

Now from value to compound:

- fold induction at 24 h, 50 µM (CYP1A1 mRNA; [9]): 0.29 ± 0.03
- fold induction at 24 h, 10 µM (CYP1A1 mRNA; [10]): 1.13 ± 0.35
- fold induction at 24 h, 50 µM (CYP1A1 mRNA; [10]): 0.93 ± 0.11
- fold induction at 24 h, 10 µM (CYP1A1 mRNA; [11]): 2.34 ± 0.25
- fold induction at 24 h, 50 µM (CYP1A1 mRNA; [11]): 1.56 ± 0.23
- fold induction at 24 h, 50 µM (CYP1A1 mRNA; [12]): 0.14 ± 0.13
SMILES: COc1cc(-c2[o+]c3cc(O)cc(O)c3cc2O[C@@H]2O[C@H](CO)[C@@H](O)[C@H](O)[C@H]2O)cc(OC)c1O [MAL-1, malvidin-3-O-glucoside chloride]

- CYP1A1 mRNA fold induction over the vehicle-treated cells, LH45 ([4]; 10 µM): 0.70 ± 0.17 fold
- CYP1A1 mRNA fold induction over the vehicle-treated cells, LH46 ([4]; 10 µM): 1.49 ± 0.10 fold
- CYP1A1 mRNA fold induction over the vehicle-treated cells, LH45 ([4]; 50 µM): 1.17 ± 0.14 fold
- CYP1A1 mRNA fold induction over the vehicle-treated cells, LH46 ([4]; 50 µM): 2.21 ± 0.66 fold
- CYP1A1 mRNA fold induction over the vehicle-treated cells, LH47 ([4]; 50 µM): 0.59 ± 0.52 fold
- CYP1A1 mRNA fold induction over the vehicle-treated cells, LH48 ([4]; 50 µM): 0.98 ± 0.27 fold
SMILES: OC[C@H]1O[C@@H](Oc2cc3c(O[C@@H]4O[C@H](CO)[C@@H](O)[C@H](O)[C@H]4O)cc(O)cc3[o+]c2-c2ccc(O)cc2)[C@H](O)[C@@H](O)[C@@H]1O [PEL-1, pelargonidin-3,5-di-O-glucoside chloride]
